Data on five compounds can be found in patent publication US12122816B2, “Long acting peptide tyrosine tyrosine (PYY) analogs and methods of use” (Intarcia Therapeutics, Inc., priority 2020, dated 2024).

Data set [1] can be described thus: Solubility in DI water at room temperature (visual inspection). Format: physicochemical. The note with it: TFA salt form. As for the experimental part: The analog polypeptides described herein were tested for solubility in saline or in aqueous (DI water) at room temperature. Samples were visually inspected for clarity of the sample, any appearance of turbidity or haziness.

Data set [2] is described as follows: Stability in water or saline (1 mg/ml) at 37° C., purity by LC/MS and HPLC. Format: physicochemical. The note with it: TFA salt form.
The target of another data set is T1, human Y2 receptor (Homo sapiens, UniProt P49146).
T1 sequence (P49146 1-381): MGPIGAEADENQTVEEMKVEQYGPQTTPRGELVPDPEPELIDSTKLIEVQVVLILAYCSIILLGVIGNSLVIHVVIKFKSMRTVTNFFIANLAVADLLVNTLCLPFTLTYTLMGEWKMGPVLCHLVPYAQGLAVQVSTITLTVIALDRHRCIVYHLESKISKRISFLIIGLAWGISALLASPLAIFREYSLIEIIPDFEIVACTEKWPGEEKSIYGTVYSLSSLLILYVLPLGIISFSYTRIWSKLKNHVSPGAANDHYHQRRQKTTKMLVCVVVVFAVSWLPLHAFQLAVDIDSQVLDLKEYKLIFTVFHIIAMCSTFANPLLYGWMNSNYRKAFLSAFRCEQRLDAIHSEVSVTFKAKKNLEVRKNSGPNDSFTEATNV
Nature of the data set: NPY receptor functional assay (cAMP, HEK-CNG cells, ACTOne membrane potential dye). Format: cell-based. The conditions noted are these: NPY2R pEC50, HEK-CNG cells; standard PYY(3-36); species (human or rat) not given. In a few lines:
(§1)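 HEK-CNG cells stably expressing each human receptor; peptides added in triplicate for 50 minutes at room temperature, with agonism read as decreased isoproterenol-induced membrane potential dye signal (final/initial read).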

A further data set has as its target human Y4 receptor (Homo sapiens, UniProt P50391). The description is as above. Format: cell-based. The conditions noted are these: standard PP, species (human or rat) not given. In short, it runs like this: as §1
Data set [3] can be described thus: Intravenous infusion pharmacokinetics to assess clearance (CL). The conditions noted are these: male, Sprague-Dawley, plasma, rat, 1-hour IV infusion, 0.033 mg/kg. Format: in vivo, Sprague-Dawley rats.
Procedure: Peptides were dissolved in 0.05% Tween-20 in PBS (pH7.4) and administered as a 1-hour subcutaneous infusion to non-fasted male Sprague-Dawley rats (n=3 per group) at a final dose of 0.033 mg/kg via a cannula placed into the femoral vein. Formulations were administered at a rate of 0.150 mL/h/kg. […] Plasma was prepared by centrifugation and stored at −80° C. until analysis.
(§2) A 70 μL aliquot of each plasma sample was placed into to a 96-well plate. To each well was added 210 μL of 0.1% TFA in 2:1 ethanol:acetonitrile containing an appropriate internal standard. Plates were vortex mixed for 10 min at 1300 rpm, and then centrifuged for 10 min at 500×g. Supernatants (210 μL) were placed into a clean 96-well plate and evaporated under a nitrogen stream at 45° C. Residues were reconstituted in 80 μL of 20% acetonitrile (aq) containing 0.1% formic acid.
(§3) All calibration standards were prepared in control rat plasma containing K2EDTA and protease inhibitor cocktail.
(§4) Samples were injected onto a 2.1×50 mm reverse phase C18 analytical column, typically a Waters CORTECS UPLC C18+, 1.6 μm (Waters Corporation, Milford, MA) or similar. […] Typical flow rates were 550 μL/min. The column temperature was held constant at 45° C. Peptides were quantified by monitoring one or more product ions produced from a multiply charged parent ion.
The nature of data set [4]: Subcutaneous bolus injection pharmacokinetics to assess bioavailability (F). Format: in vivo, Sprague-Dawley rats. The conditions noted are these: male, Sprague-Dawley, plasma; rat, SC bolus 0.1 mg/kg.
Procedure: Peptides were dissolved in sterile saline and administered to non-fasted male Sprague-Dawley rats (n=3 per group) at a dose of 0.1 mg/kg via a single bolus injection into the subcutaneous space between the scapulae. […] Plasma was prepared by centrifugation and stored at −80° C. until analysis.
as §2, §3, §4
Another data set has as its target T2, human Y5 receptor (Homo sapiens, UniProt Q15761).
T2 sequence (Q15761 1-445): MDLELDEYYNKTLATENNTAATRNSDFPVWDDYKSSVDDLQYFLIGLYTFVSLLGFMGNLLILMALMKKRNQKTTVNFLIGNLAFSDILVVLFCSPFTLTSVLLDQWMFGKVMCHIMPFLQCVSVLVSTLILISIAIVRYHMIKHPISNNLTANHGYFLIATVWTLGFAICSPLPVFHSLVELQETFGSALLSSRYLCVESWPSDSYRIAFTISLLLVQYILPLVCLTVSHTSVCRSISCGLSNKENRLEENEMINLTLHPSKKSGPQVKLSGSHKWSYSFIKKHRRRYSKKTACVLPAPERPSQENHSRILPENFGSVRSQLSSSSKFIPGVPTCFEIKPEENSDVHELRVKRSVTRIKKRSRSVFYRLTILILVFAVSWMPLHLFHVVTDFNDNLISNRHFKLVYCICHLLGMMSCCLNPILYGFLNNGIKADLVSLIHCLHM
Nature of the data set: NPY receptor functional assay (cAMP, HEK-CNG cells, ACTOne membrane potential dye). Format: cell-based. The note with it: NPY5R pEC50, HEK-CNG cells; standard NPY; species (human or rat) not given. In a few lines:
as §1

For data set [5] the following is noted: cited from earlier work.

Starred links: 1 amine or outer side, 2 acyl side, 3 side chain; linkers in the order of their positions; H or OH if unused. Positions of bridges follow the written chain, without caps; N, C: chain ends. Residues, ends and D or L forms follow the SMILES beside them. Groups on a side chain read outwards from the residue. No end group written: not given here. *: point of attachment. C19 diacid = O=C(O)CCCCCCCCCCCCCCCCCC(=O)*; γGlu = O=C(O)[C@H](CCC(=O)[*:2])N[*:1]

Chain of human Y4 receptor (P50391 whole entry, the tested form may be a part): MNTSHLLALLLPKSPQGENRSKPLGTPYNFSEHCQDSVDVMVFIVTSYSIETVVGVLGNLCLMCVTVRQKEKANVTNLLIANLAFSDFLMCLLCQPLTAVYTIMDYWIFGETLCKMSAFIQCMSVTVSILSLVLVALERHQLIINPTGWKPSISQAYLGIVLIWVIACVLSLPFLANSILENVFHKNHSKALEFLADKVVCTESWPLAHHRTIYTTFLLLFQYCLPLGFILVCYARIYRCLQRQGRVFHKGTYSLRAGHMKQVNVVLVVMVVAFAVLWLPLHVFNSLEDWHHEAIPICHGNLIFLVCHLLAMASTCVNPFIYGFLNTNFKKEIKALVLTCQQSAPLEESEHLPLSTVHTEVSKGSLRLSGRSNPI

For `CC(C)C[C@H](NC(=O)[C@H](CC(=O)O)NC(=O)[C@@H]1CCCCNC(=O)C[C@H](NC(=O)[C@H](Cc2c[nH]c3ccccc23)NC(=O)[C@H](CCC(=O)O)NC(=O)[C@H](CCCCN)NC(=O)[C@@H]2CCCN2C(=O)[C@H](CO)NC(=O)[C@H](C)NC(=O)[C@H](CC(=O)O)NC(=O)[C@H](CCCCNC(=O)CC[C@H](NC(=O)CC[C@H](NC(=O)CCCCCCCCCCCCCCCCCC(=O)O)C(=O)O)C(=O)O)NC(=O)CNC(=O)[C@@H]2CCCN2C(=O)[C@H](CCCCN)NC(=O)[C@H](CCC(=O)O)NC(=O)[C@@H]2CCCN2C(=O)[C@H](CCCCN)NC(=O)[C@@H]2CCCN2)C(=O)N[C@@H](CCCNC(=N)N)C(=O)N[C@@H](Cc2ccc(O)cc2)C(=O)N[C@@H](Cc2ccc(O)cc2)C(=O)N1)C(=O)N[C@@H](CCCNC(=N)N)C(=O)N[C@@H](Cc1c[nH]cn1)C(=O)N[C@@H](Cc1ccc(O)cc1)C(=O)N[C@@H](CC(C)C)C(=O)N[C@@H](CC(N)=O)C(=O)N[C@@H](Cc1c[nH]c2ccccc12)C(=O)N[C@@H](CC(C)C)C(=O)N[C@H](C(=O)N[C@@H](CCCNC(=N)N)C(=O)N[C@@H](CCC(N)=O)C(=O)N[C@@H](CCCNC(=N)N)C(=O)N[C@@H](Cc1ccccc1)C(N)=O)[C@@H](C)O` [Compound A40], the “Solubility (in Water, RT)” value in data set [1] is listed as 27 mg/mL. In data set [2], the “Stability (37° C./RT, T0: Mar. 25, 2020)” value amounted to 98.1.

At human Y2 receptor, `CC(C)C[C@H](NC(=O)[C@H](Cc1ccc(O)cc1)NC(=O)[C@H](Cc1c[nH]cn1)NC(=O)[C@H](CCCNC(=N)N)NC(=O)[C@H](C)NC(=O)[C@H](CC(=O)O)NC(=O)[C@H](C)NC(=O)[C@H](Cc1ccc(O)cc1)NC(=O)[C@H](Cc1ccc(O)cc1)NC(=O)[C@H](CCCNC(=N)N)NC(=O)[C@H](CC(N)=O)NC(=O)[C@H](Cc1c[nH]c2ccccc12)NC(=O)[C@H](CCC(=O)O)NC(=O)[C@H](CCC(=O)O)NC(=O)[C@@H]1CCCN1C(=O)[C@H](CO)NC(=O)[C@H](C)NC(=O)[C@H](CC(=O)O)NC(=O)[C@H](CCCCN)NC(=O)[C@H](CCCCNC(=O)CC[C@H](NC(=O)CC[C@H](NC(=O)CCCCCCCCCCCCCCCCCCC(=O)O)C(=O)O)C(=O)O)NC(=O)[C@@H]1CCCN1C(=O)[C@H](C)NC(=O)[C@H](CCC(=O)O)NC(=O)[C@@H]1CCCN1C(=O)[C@H](CCCCN)NC(=O)[C@@H]1CCCN1)C(=O)N[C@@H](CC(N)=O)C(=O)N[C@@H](Cc1c[nH]c2ccccc12)C(=O)N[C@@H](CC(C)C)C(=O)N[C@H](C(=O)N[C@@H](CCCNC(=N)N)C(=O)N[C@@H](CCC(N)=O)C(=O)N[C@@H](CCCNC(=N)N)C(=O)N(C)[C@@H](Cc1ccc(O)cc1)C(N)=O)[C@@H](C)O` [Compound A7] gave an EC50 of 0.2 nM. Further, the “NPY4R pEC50” value on human Y4 receptor was “inactive”. In data set [3], this compound gave a clearance of 0.326 mL/min/kg. Also, the half-life in data set [3] (read-out: IV t1/2 (converted)) was 6.44 h. In data set [4], this compound had a bioavailability of 66.7%.

Regarding `CC(C)C[C@H](NC(=O)[C@H](CC(=O)O)NC(=O)[C@H](CCCCN)NC(=O)[C@H](Cc1ccc(O)cc1)NC(=O)[C@H](Cc1ccc(O)cc1)NC(=O)[C@H](CCCNC(=N)N)NC(=O)[C@H](CC(N)=O)NC(=O)[C@H](Cc1c[nH]c2ccccc12)NC(=O)[C@H](CCC(=O)O)NC(=O)[C@H](CCC(=O)O)NC(=O)[C@@H]1CCCN1C(=O)[C@H](CO)NC(=O)[C@H](C)NC(=O)[C@H](CC(=O)O)NC(=O)[C@H](CCCCNC(=O)CC[C@H](NC(=O)CC[C@H](NC(=O)CCCCCCCCCCCCCCCCCCC(=O)O)C(=O)O)C(=O)O)NC(=O)CNC(=O)[C@@H]1CCCN1C(=O)[C@H](CCCCN)NC(=O)[C@H](CCC(=O)O)NC(=O)[C@@H]1CCCN1C(=O)[C@H](CCCCN)NC(=O)[C@@H]1CCCN1)C(=O)N[C@@H](CCCNC(=N)N)C(=O)N[C@@H](Cc1c[nH]cn1)C(=O)N[C@@H](Cc1ccc(O)cc1)C(=O)N[C@@H](CC(C)C)C(=O)N[C@@H](CC(N)=O)C(=O)N[C@@H](Cc1c[nH]c2ccccc12)C(=O)N[C@@H](CC(C)C)C(=O)N[C@H](C(=O)N[C@@H](CCCNC(=N)N)C(=O)N[C@@H](CCC(N)=O)C(=O)N[C@@H](CCCNC(=N)N)C(=O)N[C@@H](Cc1ccccc1)C(N)=O)[C@@H](C)O` [Compound A19], the EC50 on human Y2 receptor is 0.0316 nM; on human Y5 receptor it was 2 nM. Also, the solubility in data set [1] (DI water, read-out: Solubility (in Water, RT)) was found to be 59 mg/mL. In addition, the “Stability (37° C./RT, T0: Mar. 25, 2020)” value in data set [2] was 88.8.

On to `CC(C)C[C@H](NC(=O)[C@H](CC(=O)O)NC(=O)[C@@H]1CCCCNC(=O)CC[C@H](NC(=O)[C@H](Cc2c[nH]c3ccccc23)NC(=O)[C@H](CCC(=O)O)NC(=O)[C@H](CCCCN)NC(=O)[C@@H]2CCCN2C(=O)[C@H](CO)NC(=O)[C@H](C)NC(=O)[C@H](CC(=O)O)NC(=O)[C@H](CCCCNC(=O)CC[C@H](NC(=O)CC[C@H](NC(=O)CCCCCCCCCCCCCCCCCC(=O)O)C(=O)O)C(=O)O)NC(=O)CNC(=O)[C@@H]2CCCN2C(=O)[C@H](CCCCN)NC(=O)[C@H](CCC(=O)O)NC(=O)[C@@H]2CCCN2C(=O)[C@H](CCCCN)NC(=O)[C@@H]2CCCN2)C(=O)N[C@@H](CCCNC(=N)N)C(=O)N[C@@H](Cc2ccc(O)cc2)C(=O)N[C@@H](Cc2ccc(O)cc2)C(=O)N1)C(=O)N[C@@H](CCCNC(=N)N)C(=O)N[C@@H](Cc1c[nH]cn1)C(=O)N[C@@H](Cc1ccc(O)cc1)C(=O)N[C@@H](CC(C)C)C(=O)N[C@@H](CC(N)=O)C(=O)N[C@@H](Cc1c[nH]c2ccccc12)C(=O)N[C@@H](CC(C)C)C(=O)N[C@H](C(=O)N[C@@H](CCCNC(=N)N)C(=O)N[C@@H](CCC(N)=O)C(=O)N[C@@H](CCCNC(=N)N)C(=O)N[C@@H](Cc1ccccc1)C(N)=O)[C@@H](C)O` [Compound A39] (H-PKPEKPGK([γGlu-γGlu-C19 diacid])DASPKEWERYYKDLRHYLNWLTRQRF-NH2; lactam 16-20; N-terminus assumed), for which, in data set [1], the “Solubility (in Water, RT)” value was determined as 16 mg/mL. For the same compound, the “Stability (37° C./RT, T0: Mar. 25, 2020)” value in data set [2] turned out to be 95.9.

For the compound “human amylin: 37-residue polypeptide hormone co-secreted with insulin from pancreatic β-cells (KCNTATCATQRLANFLVHSSNNFGAILSSTNVGSNTY; not fully specified (C-terminus, bridges); cysteine pairing not given here; UniProt P10997 34-70, looked up)”, the half-life in serum result in data set [5] is given as “about 13 minutes”.

What is called EC50 is the concentration that produces a half-maximal response. A higher EC50 goes with a need for much substance. The clearance is a measure of how efficiently the substance is removed, as volume per time. The bioavailability is dose-corrected exposure relative to a reference, in per cent. A lower bioavailability goes with poor availability. As usually defined, the solubility is the dissolved amount per volume that the medium holds.
